{"source": "paper PMC8838189", "about": "“Thiazolidinedione Derivatives: In Silico, In Vitro, In Vivo, Antioxidant and Anti-Diabetic Evaluation” (Molecules, 2022)", "key": {"[1]": {"test_system": "alloxan-induced diabetic rat model", "test": "Oral anti-hyperglycemic activity, blood glucose level in alloxan-induced diabetic rat model", "assay_type": "in vivo, Albino male Wistar rats", "procedure": "Albino male Wistar rats (150 ± 20 g) were obtained. (Supplementary Materials).\nThe animals were kept fasting overnight (12 h) before induction of diabetes. Diabetes was induced in rats as reported and (Supplementary Materials).\nBlood samples were obtained from the tail vein of all rats, the blood glucose levels (BGLs) were measured and monitored in all treatment groups at days 0 (basal), 2, 4, 15 and 30 as reported.\nOral anti-hyperglycemic activity was evaluated for compounds 4–7 by an alloxan-induced diabetic rat model. […] The BGL was monitored for each tested compound at three different doses (50,100 and 250 mg/Kg) and for five experimental period durations (0, 2, 4, 15, 30 days). […]\nThe animals were kept fasting overnight (12 h) before induction of diabetes. […]"}, "[2]": {"test_system": "alloxan-induced diabetic rat model", "test": "Serum lipid profile (CH, TG, HDL, LDL, VLDL) in alloxan-induced diabetic rats", "assay_type": "in vivo, Albino male Wistar rats", "conditions": "50 mg/Kg; for Serum CH (cholesterol) level: all experimental times", "procedure": "The blood samples (0.5 mL) were withdrawn from each rat using the retro-orbital plexus and the other steps for biochemical analysis were adapted. (Supplementary Materials).\nThe serious side effect related to diabetes is hyperlipidemia. The insulin deficiency promotes adipocytes to generate fatty acid, hepatic phospholipids and cholesterol. Thus, the levels of cholesterol (CH), triglyceride (TG), high (HDL), low (LDL) and very low (VLDL) density lipoproteins, in serum for alloxan-loaded diabetes have been measured at 50 mg/Kg concentration (Figure 7). All lipid parameters for all tested compounds have (p < 0.05) compared to the diabetic control group (Figure 7).\nFigure 7 The level of (A) CH (Cholesterol); (B) TG (Triglyceride); (C) HDL (High density lipoprotein); (D) LDL (Low density lipoprotein) and (E) VLDL (Very low density lipoprotein) in serum of hyperglycemic loaded rats. […] Data analyzed by one way ANOVA followed by LSD test and expressed as mean ± SEM from five observations. […]\nglucose level of rats was determined using glucose strips. Rats with plasma glucose concentration N 300 mg/dl (Gadadare et al., 2015) were considered diabetic and included […]\nThe blood samples (0.5 ml) were withdrawn from the retro-orbital plexus of each rat under mild anesthesia using a glass capillary tube after fasting for 6 h. Blood samples were centrifuged at 3000 rpm for 15 min. The serum was kept at −80 °C until analyzed. Speciﬁc reagent kits were used to determine levels of serum triglyceride (TG), serum cholesterol (CH), serum low density lipoproteins (LDL), serum high density lipoproteins (HDL) for assessing the lipid proﬁle.\nData are expressed as mean ± S.E. Data analysis was done using one way analysis of variance (ANOVA) followed by least significant difference (LSD) test for multiple comparisons. Difference was considered significant when p is less than 0.05. SPSS (version 11) program was used to carry out"}, "α-amylase enzyme": {"target": "α-amylase enzyme", "sequence (P04746 16-511)": "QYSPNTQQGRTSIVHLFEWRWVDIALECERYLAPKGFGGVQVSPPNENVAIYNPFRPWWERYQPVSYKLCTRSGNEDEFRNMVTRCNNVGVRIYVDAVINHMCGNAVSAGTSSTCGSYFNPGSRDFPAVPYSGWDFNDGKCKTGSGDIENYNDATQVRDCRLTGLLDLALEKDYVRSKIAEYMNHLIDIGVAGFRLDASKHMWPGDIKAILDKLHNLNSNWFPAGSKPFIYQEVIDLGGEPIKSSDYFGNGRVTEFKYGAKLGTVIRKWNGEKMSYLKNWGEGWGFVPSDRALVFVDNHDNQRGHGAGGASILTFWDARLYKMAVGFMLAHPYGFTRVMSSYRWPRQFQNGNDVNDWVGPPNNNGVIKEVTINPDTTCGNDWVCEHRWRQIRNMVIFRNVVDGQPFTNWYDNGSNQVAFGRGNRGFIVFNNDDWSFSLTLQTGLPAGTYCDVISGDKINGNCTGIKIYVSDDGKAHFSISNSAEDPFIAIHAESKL", "test": "In vitro inhibition of α-amylase assay", "assay_type": "biochemical", "conditions": "six concentrations 5-40 µg/mL, non-linear regression; read-out: IC50 against α-amylase enzyme (converted)", "procedure": "- inhibition in-vitro of α-Amylase assay:\nThe α-amylase activity of the compounds were determined using a method in which 250 μL of each compound, or Metformin .HCl, dissolved in ethanol to obtain different concentrations (5, 10, 15, 20,30 and 40 μg/mL ), was mixed with 500 μL of α-amylase (2 U/mL ) in phosphate buffer (100 mM, pH 6.8) and incubated at 37 °C for 10 min. Thereafter, 50 μL\n(1 picture or pasted object on this page, not shown here) […]\nof 1% starch, dissolved in the same buffer, was added to the mixture and the samples were incubated again at 37 °C. After 30 min, dinitrosalicylic acid (DNS) colour reagent (1 mL) was added. The (DNS) was prepared by adding 437mg of 3,5- dinitro salicylic acid in 20 mL distilled water to12 g of sodium potassium tartrate in 8 mL of 2 M NaOH, then added distilled water until the solution reach to 40 mL ). the samples were boiled for 10 min in water bath. For non-enzymatic reactions, the assays were performed with a blank containing all of the components except the enzyme."}, "[3]": {"test": "Radical scavenging by DPPH method", "conditions": "DPPH assay", "procedure": "The assay of 2,2-Diphenyl-1-picrylhydrazyl radical (DPPH) was performed according to the method at.\nThe antioxidant activity was examined for the hybrids (4–7) using the stable DPPH assay. The antioxidant results from different concentrations (0.16, 0.8, 4, 20, 40, 200 and 1000 µg/mL) were represented in Figure 5 as IC50 value (concentration of compound is essential for rising 50% of reducing power for H-donating or radical scavenging). The effect of the scavenging is rising in the trend 4 > 5 > 6 > STD > 7. […] After blocking the hydrazide group by aldehyde motifs in compounds 6 and 7, the activity was decreased. High scavenging activity may be due to the stabilization of the lone pair in the conjugated system by the presence of terminal ester or hydrazide."}}, "data": [{"compound": "5-(Benzo[d][1,3]dioxol-5-ylmethylene)-3-(2-(2,4-dioxo thiazolidin-3-yl) acetyl) thiazolidine-2,4-dione [Compound 6]", "values": [{"measurement": "Blood glucose level (BGL) compared to DC", "setting": "[1]; 50 mg/Kg, 2nd and 4th days", "value": "suffered from controlling the BGL"}, {"measurement": "Blood glucose level (BGL) compared to DC", "setting": "[1]; 100 mg/Kg, all of the experiments", "value": "increased the BGL rather than DC"}, {"measurement": "Serum CH (cholesterol) level reduction", "setting": "[2]; 2nd and 4th days", "value": "moderate reduction"}, {"measurement": "Serum CH (cholesterol) level reduction", "setting": "[2]; 15th and 30th days", "value": "best reduction of the CH level"}, {"measurement": "Serum VLDL level", "setting": "[2]; 15th and 30th days", "value": "lower than normal value"}]}, {"compound": "COc1ccc(/C=N/NC(=O)CN2C(=O)S/C(=C/c3ccc4c(c3)OCO4)C2=O)cc1", "note": "[Compound 7]", "values": [{"measurement": "IC50", "setting": "α-amylase enzyme", "value": 130, "unit": "µM"}, {"measurement": "Antioxidant (scavenging) activity compared to STD (ascorbic acid)", "setting": "[3]", "value": "lower scavenging activity than STD"}, {"measurement": "Blood glucose level (BGL) reduction", "setting": "[1]; 50 mg/Kg, 15th and 30th days", "value": "highest percentage in the BGL reduction"}, {"measurement": "Blood glucose level (BGL) compared to DC", "setting": "[1]; 100 mg/Kg, 15th and 30th days", "value": "insignificant decrease in the BGL"}, {"measurement": "Blood glucose level (BGL) compared to DC", "setting": "[1]; 250 mg/Kg, 4th, 15th and 30th days", "value": "reduced BGL significantly"}, {"measurement": "Serum CH (cholesterol) level", "setting": "[2]", "value": "worst CH level from all compounds"}]}, {"compound": "CCOC(=O)CN1C(=O)SC(=Cc2ccc3c(c2)OCO3)C1=O", "note": "[Compound 4, Ethyl-2-(5-(benzo[d][1,3]dioxol-5-ylmethylene)-2,4-dioxothiazolidin-3-yl)acetate]", "values": [{"measurement": "Blood glucose level (BGL) compared to DC", "setting": "[1]; 50 mg/Kg, 2nd, 4th and 15th days", "value": "suffered from controlling the BGL"}, {"measurement": "Blood glucose level (BGL) compared to DC", "setting": "[1]; 100 mg/Kg, 15th and 30th days", "value": "significance decrease in the BGL"}, {"measurement": "Blood glucose level (BGL) compared to DC", "setting": "[1]; 250 mg/Kg, all durations of the experiment", "value": "failed to control BGL"}, {"measurement": "Serum VLDL level, regulation to nearly normal value", "setting": "[2]; 0th and 15th days", "value": "failed to do so"}, {"measurement": "Serum TG (triglyceride) level compared to DC", "setting": "[2]; 2nd day", "value": "failed to regulate the TG level lower than the DC level"}, {"measurement": "Serum VLDL level", "setting": "[2]; 2nd, 14th and 30th days", "value": "nearly normal value"}, {"measurement": "Serum CH (cholesterol) level", "setting": "[2]", "value": "moderate regulation of the CH value"}]}, {"compound": "NNC(=O)CN1C(=O)SC(=Cc2ccc3c(c2)OCO3)C1=O", "note": "[Compound 5, 2-(5-(Benzo[d][1,3]dioxol-5-ylmethylene)-2,4-dioxothiazolidin-3-yl)acetohydrazide]", "values": [{"measurement": "Blood glucose level (BGL) compared to DC", "setting": "[1]; 100 mg/Kg, 15th and 30th days", "value": "significance decrease in the BGL"}, {"measurement": "Blood glucose level (BGL) regulation", "setting": "[1]; 250 mg/Kg, 15th and 30th days", "value": "organized the BGL more than 6"}, {"measurement": "Serum CH (cholesterol) level reduction", "setting": "[2]; 2nd day", "value": "moderate reduction value"}, {"measurement": "Serum CH (cholesterol) level reduction", "setting": "[2]; 15th and 30th days", "value": "best reduction of the CH level"}, {"measurement": "Serum VLDL level", "setting": "[2]; 15th and 30th days", "value": "lower than normal value"}]}]}
